Series [1] addresses 5-hydroxytryptamine receptor 2A (Rattus norvegicus, UniProt P14842). Kind of series: Binding affinity against rat 5-hydroxytryptamine 2A receptor.
A further series concerns the target D(2) dopamine receptor (Homo sapiens, UniProt P14416). Kind of series: Binding affinity against human Dopamine receptor D2.
Series [2] addresses Voltage-gated inwardly rectifying potassium channel KCNH2 (Homo sapiens, UniProt Q12809). Kind of series: Binding affinity against human IKr channel.
The target of series [3] is T1, 5-hydroxytryptamine receptor 2C (Homo sapiens, UniProt P28335).
T1 sequence (P28335 whole entry): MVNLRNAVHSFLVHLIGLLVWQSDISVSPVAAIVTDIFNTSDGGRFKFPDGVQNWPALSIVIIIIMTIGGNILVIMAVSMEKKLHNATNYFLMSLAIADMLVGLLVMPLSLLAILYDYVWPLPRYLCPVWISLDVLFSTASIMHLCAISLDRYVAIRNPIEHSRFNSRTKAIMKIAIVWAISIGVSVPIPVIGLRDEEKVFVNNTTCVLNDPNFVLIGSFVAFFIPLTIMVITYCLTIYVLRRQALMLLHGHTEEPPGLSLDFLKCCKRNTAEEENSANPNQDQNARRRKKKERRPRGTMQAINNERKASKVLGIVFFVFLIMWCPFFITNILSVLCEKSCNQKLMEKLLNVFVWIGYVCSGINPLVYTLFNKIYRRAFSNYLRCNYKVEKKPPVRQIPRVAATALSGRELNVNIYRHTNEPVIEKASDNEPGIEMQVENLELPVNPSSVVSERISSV
Description: Binding affinity against human 5-hydroxytryptamine 2c receptor

Series [4] has as its target 5-hydroxytryptamine receptor 2A (Rattus norvegicus) (UniProt P14842). Kind of series: In vivo occupancy at rat 5-HT2A receptor at 30 min after dosing at 10 mg/kg per orally. It is filed as functional, organism-based.
Series [5] has as its target 5-hydroxytryptamine receptor 2A (Homo sapiens, UniProt P28223). Briefly: Binding affinity against human 5-hydroxytryptamine 2A receptor.
A short description of series [6]: pKa value of the compound. It is filed as physicochemical.
The nature of series [7]: Plasma clearance after i.v. administration in rat. It is filed as ADME, organism-based. The settings on record: iv, read-out: Clp.
Series [8] in a line: Half life period was determined. It is filed as ADME. The settings on record: rat.
Series [9] in a line: Bioavailability in rat. The series is classed as ADME, organism-based. The settings on record: in vivo.

The values that follow come from ChEMBL document CHEMBL1142766, “4-Fluorosulfonylpiperidines: selective 5-HT2A ligands for the treatment of insomnia” (Bioorg Med Chem Lett, 2005).

SMILES strings stand for the structures.

Voltage-gated inwardly rectifying potassium channel KCNH2, sequence (Q12809 whole entry): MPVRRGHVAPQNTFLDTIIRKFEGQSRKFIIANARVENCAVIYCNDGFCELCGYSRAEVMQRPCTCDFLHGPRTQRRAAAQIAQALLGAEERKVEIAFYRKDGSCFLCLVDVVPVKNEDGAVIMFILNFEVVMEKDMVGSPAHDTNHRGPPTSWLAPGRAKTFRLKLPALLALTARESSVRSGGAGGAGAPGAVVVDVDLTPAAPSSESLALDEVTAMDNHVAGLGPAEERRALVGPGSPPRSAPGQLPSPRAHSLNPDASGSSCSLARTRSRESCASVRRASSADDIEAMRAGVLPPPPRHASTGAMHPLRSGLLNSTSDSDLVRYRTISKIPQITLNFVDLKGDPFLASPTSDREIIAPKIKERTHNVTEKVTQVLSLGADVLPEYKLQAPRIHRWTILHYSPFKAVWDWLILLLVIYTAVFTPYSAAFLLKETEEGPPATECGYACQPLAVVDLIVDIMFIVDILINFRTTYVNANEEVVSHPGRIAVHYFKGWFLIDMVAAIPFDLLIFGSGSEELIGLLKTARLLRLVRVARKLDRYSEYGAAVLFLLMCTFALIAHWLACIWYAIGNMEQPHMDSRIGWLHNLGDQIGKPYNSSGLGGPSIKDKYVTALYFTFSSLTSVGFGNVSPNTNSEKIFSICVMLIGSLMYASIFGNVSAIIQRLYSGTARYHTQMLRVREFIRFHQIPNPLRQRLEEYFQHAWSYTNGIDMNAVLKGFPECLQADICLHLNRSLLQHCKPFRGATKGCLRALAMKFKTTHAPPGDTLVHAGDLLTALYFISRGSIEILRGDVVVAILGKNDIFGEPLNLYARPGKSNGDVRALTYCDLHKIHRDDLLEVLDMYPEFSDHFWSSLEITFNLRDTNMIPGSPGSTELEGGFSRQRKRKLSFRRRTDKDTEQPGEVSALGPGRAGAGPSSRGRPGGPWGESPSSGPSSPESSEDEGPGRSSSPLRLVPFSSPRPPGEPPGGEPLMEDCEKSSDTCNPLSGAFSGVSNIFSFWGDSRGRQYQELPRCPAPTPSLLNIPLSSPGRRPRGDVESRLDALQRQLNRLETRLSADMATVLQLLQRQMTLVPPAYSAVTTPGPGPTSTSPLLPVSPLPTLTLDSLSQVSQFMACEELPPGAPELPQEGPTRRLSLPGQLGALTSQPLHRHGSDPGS
5-hydroxytryptamine receptor 2A (Homo sapiens, UniProt P28223), sequence (P28223 whole entry): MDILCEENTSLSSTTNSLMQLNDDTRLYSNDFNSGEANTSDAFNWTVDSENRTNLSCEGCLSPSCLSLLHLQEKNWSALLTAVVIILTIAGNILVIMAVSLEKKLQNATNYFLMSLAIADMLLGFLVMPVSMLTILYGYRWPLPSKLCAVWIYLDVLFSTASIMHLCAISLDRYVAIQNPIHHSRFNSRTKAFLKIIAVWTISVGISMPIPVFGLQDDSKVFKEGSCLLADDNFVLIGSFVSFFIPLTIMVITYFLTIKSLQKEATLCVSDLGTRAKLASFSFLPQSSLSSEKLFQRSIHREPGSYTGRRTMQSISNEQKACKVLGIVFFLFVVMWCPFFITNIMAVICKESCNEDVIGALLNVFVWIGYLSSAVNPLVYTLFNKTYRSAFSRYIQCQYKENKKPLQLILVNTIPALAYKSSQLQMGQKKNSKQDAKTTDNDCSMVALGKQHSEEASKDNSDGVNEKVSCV
5-hydroxytryptamine receptor 2A (Rattus norvegicus, UniProt P14842), sequence (P14842 whole entry): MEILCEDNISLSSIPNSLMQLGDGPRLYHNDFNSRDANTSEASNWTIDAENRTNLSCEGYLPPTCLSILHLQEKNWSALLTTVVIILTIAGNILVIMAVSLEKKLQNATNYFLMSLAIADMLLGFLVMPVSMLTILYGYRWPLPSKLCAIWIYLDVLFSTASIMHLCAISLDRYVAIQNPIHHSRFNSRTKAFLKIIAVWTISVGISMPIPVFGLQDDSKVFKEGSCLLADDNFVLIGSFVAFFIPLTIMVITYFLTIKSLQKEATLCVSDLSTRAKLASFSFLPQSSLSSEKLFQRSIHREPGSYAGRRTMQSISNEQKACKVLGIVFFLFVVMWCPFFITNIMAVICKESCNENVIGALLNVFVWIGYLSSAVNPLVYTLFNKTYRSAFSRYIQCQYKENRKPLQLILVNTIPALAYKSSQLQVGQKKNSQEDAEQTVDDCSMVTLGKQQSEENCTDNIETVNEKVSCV
5-hydroxytryptamine receptor 2A (Rattus norvegicus), sequence (P14842 whole entry): as above
D(2) dopamine receptor, sequence (P14416 whole entry): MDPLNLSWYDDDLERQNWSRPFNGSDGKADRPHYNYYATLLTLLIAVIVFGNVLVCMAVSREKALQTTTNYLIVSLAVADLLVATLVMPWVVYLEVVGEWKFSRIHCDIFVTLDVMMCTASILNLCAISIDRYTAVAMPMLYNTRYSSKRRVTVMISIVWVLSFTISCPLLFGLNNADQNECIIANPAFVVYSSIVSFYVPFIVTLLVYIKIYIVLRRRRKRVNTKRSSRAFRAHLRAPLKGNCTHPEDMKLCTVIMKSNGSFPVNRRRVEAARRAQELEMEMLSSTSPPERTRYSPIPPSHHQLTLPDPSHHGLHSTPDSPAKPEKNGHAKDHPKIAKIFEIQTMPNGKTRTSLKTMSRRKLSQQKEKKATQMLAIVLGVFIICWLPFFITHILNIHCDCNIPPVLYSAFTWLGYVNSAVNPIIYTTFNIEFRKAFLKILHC

By Ki is commonly meant the dissociation constant of the complex between target and ligand, obtained from inhibition or displacement. Turning to `O=S(=O)(c1ccc(-n2cccn2)cc1)C1(F)CCN(CCc2ccc(F)cc2F)CC1`, the Ki is 1.6 nM in [1]; above 2000 nM on D(2) dopamine receptor; above 9 µM in [2]; above 4000 nM in series [3]; 2 nM in series [5]. In series [4], this molecule registered an Activity of 37.

Consider `O=S(=O)(c1ccc(-n2ccnn2)cc1)C1(F)CCN(CCc2ccc(F)cc2F)CC1`, for which the Ki at D(2) dopamine receptor is above 2000 nM; in series [2] it was above 9 µM; in series [3], above 4000 nM; in series [5] it was 0.66 nM. The Activity in series [4] is 62.

As for `O=S(=O)(c1ccc(N2CCC2)cc1)C1(F)CCN(CCc2ccc(F)cc2F)CC1`, the Ki in [1] was 0.3 nM; on D(2) dopamine receptor, above 2000 nM; in series [3], 844 nM; in series [5], 1 nM. This molecule also gave an Activity in series [4] of 49.

Broadly, the pKa is the negative logarithm of the acid dissociation constant. The low end stands for a stronger acid or weaker base, the high end for a weaker acid or stronger base. In the case of `O=C(CN1CCC(S(=O)(=O)c2ccccc2)CC1)c1ccc(F)cc1F`, the Ki in series [1] is 0.51 nM; at D(2) dopamine receptor, above 1500 nM; in series [2], 6.8 µM; in series [3] it was 130 nM; in series [5], 2.4 nM. This molecule also gave a pKa in series [6] of 6.3.

Turning to `O=S(=O)(c1ccc(F)cc1)C1CCN(CCc2ccc(F)cc2F)CC1`, the pKa in [6] amounted to 7.2.

For `O=S(=O)(c1ccc(Cl)cc1)C1(F)CCN(CCc2ccc(F)cc2F)CC1`, the Ki at D(2) dopamine receptor was above 1000 nM; in series [5] it was 0.64 nM.

With `O=S(=O)(c1ccccc1)C1(F)CCN(CCc2ccc(F)cc2F)CC1`, the Ki is above 1000 nM at D(2) dopamine receptor, 2.45 µM in series [2], 49 nM in series [3] and 0.68 nM in series [5].

In turn, `O=S(=O)(c1ccccc1)C1CCN(CCc2ccc(F)cc2F)CC1` registered a pKa in series [6] of 7.3.

As for `O=S(=O)(c1cccc(F)c1)C1(F)CCN(CCc2ccc(F)cc2F)CC1`, the Ki at D(2) dopamine receptor is 791 nM; in series [3] it was 49 nM; in series [5] it was 0.3 nM.

Take `N#Cc1ccc(S(=O)(=O)C2(F)CCN(CCc3ccc(F)cc3F)CC2)cc1`: the Ki in [1] stood at 1.33 nM; at D(2) dopamine receptor, 863 nM; in series [2] it was 2.7 µM; in series [3], 1490 nM; in series [5] it was 2.7 nM. This molecule also yielded a pKa in series [6] of 6.4. The molecule also displayed an Activity in series [4] of 80.

A word on the half-life: it is the time in which the quantity being followed falls by half. A low value points to fast loss. Broadly, the bioavailability is dose-corrected exposure relative to a reference, in per cent. Read a low bioavailability as little systemic uptake. As for `O=S(=O)(c1ccc(F)cc1)C1(F)CCN(CCc2ccc(F)cc2F)CC1`, the Ki in [1] was 0.63 nM; at D(2) dopamine receptor, 313 nM; in series [2], 5.56 µM; in [3], 176 nM; in [5] it was 0.39 nM. In addition, in series [7], the clearance turned out to be 69 mL/min. Moreover, the pKa in series [6] turned out to be 6.3. For the same molecule, the half-life in series [8] is 228 min. The molecule further showed a bioavailability in series [9] of 51%. The Activity in series [4] was found to be 98%.

Consider `O=S(=O)(c1ccccc1F)C1(F)CCN(CCc2ccc(F)cc2F)CC1`, for which the Ki on D(2) dopamine receptor was 266 nM; in series [2] it was 0.398 µM; in series [3] it was 14 nM; in series [5], 0.32 nM.
